One series has as its target human Nav1.8 (Homo sapiens (Human), UniProt Q9Y5Y9). The series can be described thus: E-VIPR optical membrane potential assay with electrical stimulation. The format is cell-based. The following applies: HEK cells expressing human Nav1.8. From the text: E-VIPR Optical Membrane Potential Assay Method with Electrical Stimulation
Sodium channels are voltage-dependent proteins that can be activated by inducing membrane voltage changes by applying electric fields. The electrical stimulation instrument and methods of use are described in Ion Channel Assay Methods PCT/US01/21652, herein incorporated by reference and are referred to as E-VIPR. The instrument comprises a microtiter plate handler, an optical system for exciting the coumarin dye while simultaneously recording the coumarin and oxonol emissions, a waveform generator, a current- or voltage-controlled amplifier, and a device for inserting electrodes in well. Under integrated computer control, this instrument passes user-programmed electrical stimulus protocols to cells within the wells of the microtiter plate.
24 hours before the assay on E-VIPR, HEK cells expressing human Nav1.8 were seeded in 384-well poly-lysine coated plates at 15,000-20,000 cells per well. HEK cells were grown in media (exact composition is specific to each cell type and NaV subtype) supplemented with 10% FBS (Fetal Bovine Serum, qualified; GibcoBRL #16140-071) and 1% Pen-Strep (Penicillin-Streptomycin; GibcoBRL #15140-122). Cells were grown in vented cap flasks, in 90% humidity and 5% CO2.
• 100 mg/mL Pluronic F-127 (Sigma #P2443), in dry DMSO • Compound Plates: 384-well round bottom plate, e.g. Corning 384-well Polypropylene Round Bottom #3656 • Cell Plates: 384-well tissue culture treated plate, e.g. Greiner #781091-1B • 10 mM DiSBAC6(3) (Aurora #00-100-010) in dry DMSO • 10 mM CC2-DMPE (Aurora #00-100-008) in dry DMSO • 200 mM ABSC1 in H20
Bath1 buffer: Glucose 10 mM (1.8 g/L), Magnesium Chloride (Anhydrous), 1 mM (0.095 g/L), Calcium Chloride, 2 mM (0.222 g/L), HEPES 10 mM (2.38 g/L), Potassium Chloride, 4.5 mM (0.335 g/L), Sodium Chloride 160 mM (9.35 g/L).
Hexyl Dye Solution: Bath1 Buffer+0.5% β-cyclodextrin (make this prior to use, Sigma #C4767), 8 μM CC2-DMPE+2.5 μM DiSBAC6(3). To make the solution Added volume of 10% Pluronic F127 stock equal to volumes of CC2-DMPE+DiSBAC6(3). The order of preparation was first mix Pluronic and CC2-DMPE, then added DiSBAC6(3) while vortexing, then added Bath1+β-Cyclodextrin.
1) Pre-spotted compounds (in neat DMSO) into compound plates. Vehicle control (neat DMSO), the positive control (20 mM DMSO stock tetracaine, 125 μM final in assay) and test compounds were added to each well at 160× desired final concentration in neat DMSO. Final compound plate volume was 80 μL (80-fold intermediate dilution from 1 μL DMSO spot; 160-fold final dilution after transfer to cell plate). Final DMSO concentration for all wells in assay was 0.625%.
2) Prepared Hexyl Dye Solution.
3) Prepared cell plates. On the day of the assay, medium was aspirated and cells were washed three times with 100 μL of Bath1 Solution, maintaining 25 μL residual volume in each well.
4) Dispensed 25 μL per well of Hexyl Dye Solution into cell plates. Incubated for 20-35 minutes at room temp or ambient conditions.
5) Dispensed 80 μL per well of Bath1 into compound plates. Acid Yellow-17 (1 mM) was added and Potassium Chloride was altered from 4.5 to 20 mM depending on the NaV subtype and assay sensitivity.
6) Washed cell plates three times with 100 μL per well of Bath1, leaving 25 μL of residual volume. Then transferred 25 uL per well from Compound Plates to Cell Plates. Incubated for 20-35 minutes at room temp/ambient condition.
7) Read Plate on E-VIPR. Used the current-controlled amplifier to deliver stimulation wave pulses for 10 seconds and a scan rate of 200 Hz. A pre-stimulus recording was performed for 0.5 seconds to obtain the un-stimulated intensities baseline. The stimulatory waveform was followed by 0.5 seconds of post-stimulation recording to examine the relaxation to the resting state.
Data was analyzed and reported as normalized ratios of emission intensities measured in the 460 nm and 580 nm channels. […]

Series [1] can be described thus: Human liver microsome assay. The format is in vitro ADME. The following applies: 1 uM substrate, 0.5 mg/mL liver microsome, 2 mM NADPH, 37° C., referenced against time zero control. As for the experimental part: Human Liver Microsome Assay Protocol
Liver microsomal stability data were generated as follows. Substrates were incubated at 37° C. and shaken for 30 minutes in a phosphate buffered solution with human liver microsomes and the cofactor NADPH. A time zero control was similarly prepared, however with NADPH excluded. The final incubation concentrations were 1 uM substrate (0.2% DMSO), 0.5 mg/mL liver microsome, 2 mM NADPH, and 0.1 M phosphate. Reactions were quenched and proteins precipitated with the addition of 2 volume equivalents of ice cold acetonitrile containing an internal standard. Following a centrifugation step, aliquots from the quenched incubations were further diluted with 4 volume equivalents of a 50% aqueous methanol solution and then subjected to LC/MS/MS analysis for quantitation of parent substrate. Microsome stability values were calculated as the percent of substrate remaining after 30 minutes referenced against the time zero control.

What is called IC50 is the concentration that gives 50% inhibition. A higher IC50 goes with a need for much substance.

human Nav1.8, sequence (Q9Y5Y9 whole entry): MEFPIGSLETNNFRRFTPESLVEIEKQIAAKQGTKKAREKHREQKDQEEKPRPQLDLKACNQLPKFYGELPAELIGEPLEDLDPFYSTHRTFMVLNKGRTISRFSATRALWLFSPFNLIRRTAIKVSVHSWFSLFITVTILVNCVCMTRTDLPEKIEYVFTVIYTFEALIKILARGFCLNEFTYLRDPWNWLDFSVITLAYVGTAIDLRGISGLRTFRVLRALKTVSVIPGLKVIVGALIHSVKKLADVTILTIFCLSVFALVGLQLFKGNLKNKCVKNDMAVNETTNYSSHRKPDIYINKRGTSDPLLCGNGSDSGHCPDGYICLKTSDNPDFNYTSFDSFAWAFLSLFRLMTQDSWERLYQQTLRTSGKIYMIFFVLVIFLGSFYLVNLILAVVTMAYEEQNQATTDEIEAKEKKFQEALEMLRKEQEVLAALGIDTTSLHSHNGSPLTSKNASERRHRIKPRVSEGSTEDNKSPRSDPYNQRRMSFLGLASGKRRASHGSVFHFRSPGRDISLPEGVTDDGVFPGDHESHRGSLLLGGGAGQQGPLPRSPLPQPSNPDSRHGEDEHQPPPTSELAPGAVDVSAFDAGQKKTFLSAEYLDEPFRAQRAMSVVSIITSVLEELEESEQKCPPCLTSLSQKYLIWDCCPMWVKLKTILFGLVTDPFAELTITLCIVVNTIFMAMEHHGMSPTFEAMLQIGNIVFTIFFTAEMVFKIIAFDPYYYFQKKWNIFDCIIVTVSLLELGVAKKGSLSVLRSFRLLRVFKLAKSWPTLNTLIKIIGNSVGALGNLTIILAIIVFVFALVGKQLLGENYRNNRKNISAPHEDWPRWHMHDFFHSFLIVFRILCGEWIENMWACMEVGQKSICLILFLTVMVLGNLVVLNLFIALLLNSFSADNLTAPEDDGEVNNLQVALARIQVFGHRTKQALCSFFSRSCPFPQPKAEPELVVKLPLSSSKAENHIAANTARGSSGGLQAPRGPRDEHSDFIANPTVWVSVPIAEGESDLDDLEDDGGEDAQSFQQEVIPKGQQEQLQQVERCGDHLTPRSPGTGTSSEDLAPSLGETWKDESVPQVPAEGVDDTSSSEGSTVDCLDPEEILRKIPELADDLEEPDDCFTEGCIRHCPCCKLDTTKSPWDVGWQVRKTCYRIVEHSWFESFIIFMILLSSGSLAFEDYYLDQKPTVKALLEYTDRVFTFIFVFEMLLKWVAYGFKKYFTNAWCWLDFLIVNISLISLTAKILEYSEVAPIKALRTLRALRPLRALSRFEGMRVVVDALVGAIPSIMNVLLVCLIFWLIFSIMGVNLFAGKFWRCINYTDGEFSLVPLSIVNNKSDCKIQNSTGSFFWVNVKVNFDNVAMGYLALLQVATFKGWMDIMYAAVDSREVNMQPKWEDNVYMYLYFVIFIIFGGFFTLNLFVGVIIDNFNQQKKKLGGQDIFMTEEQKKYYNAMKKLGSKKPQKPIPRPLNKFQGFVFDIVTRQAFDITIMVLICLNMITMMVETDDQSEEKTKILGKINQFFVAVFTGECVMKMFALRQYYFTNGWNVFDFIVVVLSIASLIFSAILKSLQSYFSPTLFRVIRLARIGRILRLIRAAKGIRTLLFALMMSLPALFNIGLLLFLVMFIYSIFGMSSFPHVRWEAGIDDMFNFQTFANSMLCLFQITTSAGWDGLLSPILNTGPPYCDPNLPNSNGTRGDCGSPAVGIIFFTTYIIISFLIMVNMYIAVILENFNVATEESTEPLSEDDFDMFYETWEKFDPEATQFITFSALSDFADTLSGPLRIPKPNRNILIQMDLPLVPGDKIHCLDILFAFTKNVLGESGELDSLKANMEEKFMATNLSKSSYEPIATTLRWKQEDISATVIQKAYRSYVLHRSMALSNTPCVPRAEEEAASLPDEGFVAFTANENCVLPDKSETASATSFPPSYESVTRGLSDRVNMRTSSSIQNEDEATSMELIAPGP

As for `Cc1cc(F)ccc1Oc1ccc(Cl)cc1C(=O)Nc1cccc(S(N)(=O)=O)c1` [Compound 20, 5-chloro-2-(4-fluoro-2-methylphenoxy)-N-(3-sulfamoylphenyl)benzamide], the IC50 against human Nav1.8 was 4 nM. Also, the “HLM: percent unchanged after 30 min” value in series [1] came to 96%.

For the compound `Cc1cc(F)ccc1Oc1ccc(F)cc1C(=O)Nc1cccc(S(N)(=O)=O)c1` [Compound 21, 5-fluoro-2-(4-fluoro-2-methylphenoxy)-N-(3-sulfamoylphenyl)benzamide], at human Nav1.8, the IC50 is 23 nM. In series [1], the “HLM: percent unchanged after 30 min” value came out at 96%.

In turn, `COc1ccc(Oc2ccc(C(F)(F)F)cc2C(=O)Nc2cccc(S(N)(=O)=O)c2)cc1` [Compound 22, 2-(4-methoxyphenoxy)-N-(3-sulfamoylphenyl)-5-(trifluoromethyl)benzamide] displayed an IC50 at human Nav1.8 of 28 nM. Moreover, the “HLM: percent unchanged after 30 min” value in series [1] amounted to 88%.

Consider `CCOc1ccc(Oc2ccc(C(F)(F)F)cc2C(=O)Nc2cccc(S(N)(=O)=O)c2)cc1` [Compound 23, 2-(4-ethoxyphenoxy)-N-(3-sulfamoylphenyl)-5-(trifluoromethyl)benzamide], for which, at human Nav1.8, the IC50 was determined as 14 nM. Also, in series [1], the “HLM: percent unchanged after 30 min” value was 75%.

For the compound `NS(=O)(=O)c1cccc(NC(=O)c2cc(C(F)(F)F)ccc2Oc2ccc(Cl)cc2)c1` [Compound 24, 2-(4-chlorophenoxy)-N-(3-sulfamoylphenyl)-5-(trifluoromethyl)benzamide], on human Nav1.8, half-maximal inhibition (IC50) was put at 30 nM. Also, in series [1], the “HLM: percent unchanged after 30 min” value is 102%.

In the case of `Cc1cc(F)ccc1Oc1ccc(C(F)(F)F)cc1C(=O)Nc1cccc(S(N)(=O)=O)c1` [Compound 25, 2-(4-fluoro-2-methylphenoxy)-N-(3-sulfamoylphenyl)-5-(trifluoromethyl)benzamide], the IC50 against human Nav1.8 was 4 nM. The “HLM: percent unchanged after 30 min” value in series [1] is recorded as 94%.

The compound `NS(=O)(=O)c1cccc(NC(=O)c2cc(C(F)(F)F)ccc2Oc2ccc(F)cc2Cl)c1` [Compound 26, 2-(2-chloro-4-fluorophenoxy)-N-(3-sulfamoylphenyl)-5-(trifluoromethyl)benzamide] registered an IC50 against human Nav1.8 of 4 nM. Besides, in series [1], the “HLM: percent unchanged after 30 min” value was 119%.

On to `COc1cc(F)ccc1Oc1ccc(C(F)(F)F)cc1C(=O)Nc1cccc(S(N)(=O)=O)c1` [Compound 27, 2-(4-fluoro-2-methoxyphenoxy)-N-(3-sulfamoylphenyl)-5-(trifluoromethyl)benzamide], for which, on human Nav1.8, the midpoint of inhibition, the IC50, lay at 6 nM. In addition, the “HLM: percent unchanged after 30 min” value in series [1] was 101%.

At human Nav1.8, `COc1ccc(Oc2ccc(C(F)(F)F)cc2C(=O)Nc2cccc(S(N)(=O)=O)c2)cc1F` [Compound 28, 2-(3-fluoro-4-methoxyphenoxy)-N-(3-sulfamoylphenyl)-5-(trifluoromethyl)benzamide] gave a 50% inhibitory concentration (IC50) of 16 nM. Besides, the “HLM: percent unchanged after 30 min” value in series [1] is 92%.

Consider `COc1c(F)cccc1Oc1ccc(C(F)(F)F)cc1C(=O)Nc1cccc(S(N)(=O)=O)c1` [Compound 29, 2-(3-fluoro-2-methoxyphenoxy)-N-(3-sulfamoylphenyl)-5-(trifluoromethyl)benzamide], for which, on human Nav1.8, half-maximal inhibition (IC50) was put at 5 nM. The “HLM: percent unchanged after 30 min” value in series [1] is given as 100%.

As for `Cc1cc(Cl)ccc1Oc1ccc(C(F)(F)F)cc1C(=O)Nc1cccc(S(N)(=O)=O)c1` [Compound 30, 2-(4-chloro-2-methylphenoxy)-N-(3-sulfamoylphenyl)-5-(trifluoromethyl)benzamide], 9 nM corresponded to half-maximal inhibition against human Nav1.8 (IC50). For the same compound, the “HLM: percent unchanged after 30 min” value in series [1] was found to be 103%.

`COc1ccc(Oc2ccc(C(F)(F)F)cc2C(=O)Nc2cccc(S(N)(=O)=O)c2)c(Cl)c1` [Compound 31, 2-(2-chloro-4-methoxyphenoxy)-N-(3-sulfamoylphenyl)-5-(trifluoromethyl)benzamide] yielded an IC50 against human Nav1.8 of 6 nM. Besides, the “HLM: percent unchanged after 30 min” value in series [1] was 82%.

For the compound `Cc1ccccc1Oc1ccc(C(F)(F)F)cc1C(=O)Nc1cccc(S(N)(=O)=O)c1` [Compound 32, N-(3-sulfamoylphenyl)-2-(o-tolyloxy)-5-(trifluoromethyl)benzamide], on human Nav1.8, the IC50 was found to be 8 nM. Moreover, in series [1], the “HLM: percent unchanged after 30 min” value was 76%.

In turn, `NS(=O)(=O)c1cccc(NC(=O)c2c(Oc3ccc(F)cc3Cl)cccc2C(F)(F)F)c1` [Compound 33, 2-(2-chloro-4-fluorophenoxy)-N-(3-sulfamoylphenyl)-6-(trifluoromethyl)benzamide] had an IC50 against human Nav1.8 of 5 nM. In addition, the “HLM: percent unchanged after 30 min” value in series [1] is 102%.

Take `COc1ccccc1Oc1ccc(C(F)(F)F)cc1C(=O)Nc1cccc(S(N)(=O)=O)c1` [Compound 34, 2-(2-methoxyphenoxy)-N-(3-sulfamoylphenyl)-5-(trifluoromethyl)benzamide]: half-maximal inhibition against human Nav1.8 (IC50) was put at 14 nM. In addition, in series [1], the “HLM: percent unchanged after 30 min” value is recorded as 96%.

The compound `COc1cc(Cl)ccc1Oc1ccc(C(F)(F)F)cc1C(=O)Nc1cccc(S(N)(=O)=O)c1` [Compound 35, 2-(4-chloro-2-methoxyphenoxy)-N-(3-sulfamoylphenyl)-5-(trifluoromethyl)benzamide] registered an IC50 on human Nav1.8 of 5 nM. The “HLM: percent unchanged after 30 min” value in series [1] amounted to 82%.

On human Nav1.8, `COc1ccc(Oc2ccc(C(F)(F)F)cc2C(=O)Nc2cccc(S(N)(=O)=O)c2)c(OC)c1` [Compound 36, 2-(2,4-dimethoxyphenoxy)-N-(3-sulfamoylphenyl)-5-(trifluoromethyl)benzamide] showed an IC50 of 4 nM. Also, the “HLM: percent unchanged after 30 min” value in series [1] was determined as 66%.

For the compound `CC(C)Oc1ccc(Oc2ccc(C(F)(F)F)cc2C(=O)Nc2cccc(S(N)(=O)=O)c2)cc1` [Compound 37, 2-(4-isopropoxyphenoxy)-N-(3-sulfamoylphenyl)-5-(trifluoromethyl)benzamide], 6 nM corresponded to half-maximal inhibition against human Nav1.8 (IC50). Besides, in series [1], the “HLM: percent unchanged after 30 min” value was 76%.

Compound `Cc1cccc(Oc2ccc(F)cc2Cl)c1C(=O)Nc1cccc(S(N)(=O)=O)c1` [Compound 38, 2-(2-chloro-4-fluorophenoxy)-6-methyl-N-(3-sulfamoylphenyl)benzamide] displayed an IC50 against human Nav1.8 of 14 nM. In series [1], the “HLM: percent unchanged after 30 min” value was found to be 105%.

`NS(=O)(=O)c1cccc(NC(=O)c2cc(C(F)(F)F)ccc2Oc2ccc(OC(F)(F)F)cc2)c1` [Compound 39, N-(3-sulfamoylphenyl)-2-(4-(trifluoromethoxy)phenoxy)-5-(trifluoromethyl)benzamide] had an IC50 at human Nav1.8 of 10 nM. Moreover, the “HLM: percent unchanged after 30 min” value in series [1] is given as 104%.

For the compound `NS(=O)(=O)c1cccc(NC(=O)c2cc(C(F)F)ccc2Oc2ccc(F)cc2Cl)c1` [Compound 40, 2-(2-chloro-4-fluorophenoxy)-5-(difluoromethyl)-N-(3-sulfamoylphenyl)benzamide], the IC50 against human Nav1.8 was 7 nM. In addition, the “HLM: percent unchanged after 30 min” value in series [1] was determined as 107%.

For the origin of these results see patent US11203571B2, “Sulfonamides as modulators of sodium channels” (VERTEX PHARMACEUTICALS INCORPORATED, priority 2013, dated 2021).
